According to PubChem BioAssay (NCI):
Values joined by “and” are separate entries in the source; they are usually repeats but may differ in a detail not shown here. Identical values can stand only once.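 Assay format: 96-well plates, 48-hour exposure. Abbreviation: GI50, concentration required for 50% inhibition of growth. TGI marks complete inhibition of growth.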

Legend:
Assay in all cases: inhibition of tumour cell growth, NCI panel, 48 h
[1] = system: SN12C renal
[2] = system: UACC-257 melanoma
[3] = system: SF-295 CNS
[4] = system: MDA-MB-231 breast
[5] = system: SK-MEL-28 melanoma
[6] = system: K-562 leukemia
[7] = system: TK-10 renal
[8] = system: CAKI-1 renal
[9] = system: HCT-116 colon
[10] = system: NCI-H460 lung

| Compound | GI50 [1] | TGI [1] | GI50 [2] [µM] | TGI [2] | GI50 [3] [µM] | TGI [3] | GI50 [4] | TGI [4] [µM] | GI50 [5] | TGI [5] | GI50 [6] | TGI [6] | GI50 [7] [µM] | TGI [7] | GI50 [8] | TGI [8] | GI50 [9] | TGI [9] | GI50 [10] | TGI [10] |
| --- | --- | --- | --- | --- | --- | --- | --- | --- | --- | --- | --- | --- | --- | --- | --- | --- | --- | --- | --- | --- |
| CN1CCN(Cc2ccc(NC(=O)c3cncc(C#Cc4cnc(N)cc4C#N)c3)cc2C(F)(F)F)CC1 | 2.46 µM | 10.7 µM | 3.24 | 15.4 µM | 3.54 | 15.3 µM | 1.15 µM | 3.1 | 1.11 µM | 9 µM | 0.034 µM | 12.1 µM | 4.92 | 17.5 µM | 3.78 µM | 16.7 µM | 1.43 µM | 9.85 µM | 2.66 µM | 12.7 µM |
| CN(Cc1ccc(C(F)(F)F)cc1)CC(O)C(=O)Nc1ccc(Cl)cc1 (configuration not stated) | 1.49 µM | 2.88 µM | 1.81 | 3.38 µM | 1.63 | 3.08 µM | 1.34 µM | 2.73 | 1.62 µM | 3.16 µM | 1.18 µM | 2.78 µM | 1.74 | 3.38 µM | 1.37 µM | 2.83 µM | 1.12 µM | 2.6 µM | 1.59 µM | 3.21 µM |
| CC(C)c1nc(N(C)S(C)(=O)=O)nc(-c2ccc(F)cc2)c1/C=C/[C@@H](O)C[C@@H](O)CC(=O)O | 56.2 µM | > 100 µM | > 100 | > 100 µM | 32.7 | > 100 µM | 4.81 µM | 42 | > 100 µM | > 100 µM | > 100 µM | > 100 µM | > 100 | > 100 µM | 67.7 µM | > 100 µM | 59.5 µM | > 100 µM | > 100 µM | > 100 µM |
| O=C1C2=C(C(=O)c3cnccc31)C1C=CC2CC1 (configuration not stated) | 1.69 µM | 3.1 µM | 1.72 | 3.17 µM | 5.36 | 12.4 µM | 2.45 µM | 7.61 | 2.02 µM | 3.69 µM | 1.64 µM |  | 5.54 | 10.4 µM | 3.57 µM | 9.33 µM | 1.65 µM | 3.03 µM | 8.48 µM | 21.7 µM |
| NS(=O)(=O)c1ccc(N2N=C3c4ccccc4CC3C2c2cccs2)cc1 (configuration not stated) | 23.5 µM | 48.9 µM | 29.7 | 73.7 µM | 16.2 | 34.4 µM | 16.8 µM | 40.8 | 75.6 µM | > 100 µM | 5.75 µM | 81.9 µM | 13.2 | 34.1 µM | 19.6 µM | 38.2 µM | 10.7 µM | 25 µM | > 100 µM | > 100 µM |
| CN(C)CCNC(=O)c1ccc(-c2nc3ccc4[nH]ncc4c3c3c2C2CCC3C2)cc1 (configuration not stated) | 1.82 µM | 6.88 µM | 3.07 | 9.95 µM | 2.01 | 5.39 µM | 1.64 µM | 4.11 | 1.84 µM | 5.64 µM | 1.29 µM | 9.4 µM | 0.723 | 8.02 µM | 0.93 µM | 5.25 µM | 0.432 µM | 9.13 µM | 1.56 µM | 4.79 µM |
| CN(C)c1ccc(/C=C2\N=C(c3ccccc3)N(c3cc(C(F)(F)F)ccc3Cl)C2=O)cc1 | > 100 µM | > 100 µM | > 100 | > 100 µM | > 100 | > 100 µM | > 100 µM | > 100 | > 100 µM | > 100 µM | > 100 µM | > 100 µM | > 100 | > 100 µM | > 100 µM | > 100 µM | > 100 µM | > 100 µM | > 100 µM | > 100 µM |
| NC(=O)[C@@H](CC1CC1)[C@@H](CCC(F)(F)F)C(=O)N[C@H]1N=C(c2ccccc2)c2cccc(F)c2NC1=O | > 100 µM | > 100 µM | > 100 | > 100 µM | > 100 | > 100 µM | 18.8 µM | 42.7 | 19.7 µM | 52.4 µM | 46.9 µM | > 100 µM | > 100 | > 100 µM | > 100 µM | > 100 µM | > 100 µM | > 100 µM | > 100 µM | > 100 µM |
| CC[C@@]1(OC(=O)CN)C(=O)OCc2c1cc1n(c2=O)Cc2c-1nc1cc3c(cc1c2CCl)OCO3 | < 0.0117 µM | 3.76 µM | 1.02 | 15.1 µM | < 0.01 | 11.2 µM | 1.9 µM | > 34.3 | 0.474 µM | 20.5 µM | 0.0642 µM |  | 0.947 | 7.62 µM | < 0.01 µM | 1.98 µM | < 0.01 µM | > 100 µM | < 0.01 µM | 4.44 µM |
| COC(=O)c1cc2c(cc1Cl)SC1=NN(C)S(=O)N1S2(=O)=O (configuration not stated) | > 100 µM | > 100 µM | > 100 | > 100 µM | > 100 | > 100 µM | > 100 µM | > 100 | > 100 µM | > 100 µM | > 100 µM | > 100 µM | > 100 | > 100 µM | > 100 µM | > 100 µM | > 100 µM | > 100 µM | > 100 µM | > 100 µM |
| CSc1ncc(Br)c(Sc2nc(N)nc3nc[nH]c23)n1 | 3.8 µM | 36.5 µM | 3.23 | 37.9 µM | 1.15 | > 100 µM | 2.39 µM | 58.3 | 6.63 µM | 53 µM | 2.01 µM | 10.1 µM | 2.45 | 15.8 µM | 1.84 µM | 34.1 µM | 4.2 µM | > 100 µM | 2.15 µM | 13.3 µM |
| Cc1nc2ccc(Br)cc2c(=O)n1-c1ccc(NC2OCC(O)C(O)C2O)cc1 (configuration not stated) | 30 µM and > 100 µM | > 100 µM | > 100 | > 100 µM |  | > 100 µM | 47.6 µM and > 100 µM | > 100 | 26.2 µM and > 100 µM | 66.9 µM and > 100 µM | 17.3 µM and > 100 µM | > 100 µM |  | > 100 µM | 20.3 µM and > 100 µM | 44.1 µM and > 100 µM | 17.7 µM and 79.2 µM | 53.7 µM and > 100 µM | 47.2 µM and > 100 µM | > 100 µM |
| Oc1c(Cl)cc(Cl)c2ccc(Cn3cc(-c4cc(C(F)(F)F)cc(C(F)(F)F)c4)nn3)nc12 | 3.11 µM | 11.8 µM | 1.22 | 2.99 µM | 17 | 31 µM | 2 µM | 4.95 | 1.7 µM | 3.48 µM | 0.313 µM | > 100 µM | 1.82 | 3.83 µM | 1.16 µM | 2.53 µM | 0.481 µM | 1.76 µM | 18.2 µM | 35.2 µM |
| CC1=C2C(=CC(C)(C)[C@@H]2O)C(=O)[C@](C)(O)C12CC2 | 0.0387 µM | 0.216 µM and 0.184 µM |  | 0.328 µM and 0.259 µM | 0.026 | 0.11 µM and 0.0503 µM | 0.0513 µM |  |  | 0.0756 µM and 0.0891 µM | 0.0145 µM | 0.369 µM and 0.596 µM | 0.0511 | 0.222 µM and 0.236 µM | 0.0129 µM and 0.0436 µM | 0.0697 µM and 0.594 µM |  | 0.186 µM and 0.193 µM | 0.00575 µM | 0.0437 µM and < 0.0311 µM |
| COc1ccc(Nc2nc3ccccc3c3occc23)cc1 | 7.37 µM | 17.5 µM | 19.8 | > 50 µM | 6.64 | 13.2 µM | 1.34 µM | 10.3 | 7.19 µM | 18.8 µM | 6.74 µM | > 50 µM | 6.83 | 16.4 µM | > 50 µM | > 50 µM | 6.9 µM | 13.4 µM | > 50 µM | > 50 µM |
| CN1CCN(CCOc2ccc(-c3cnc4c(-c5cccc(F)c5)cnn4c3)cc2)CC1 | 1.82 µM | 3.76 µM | 2.33 | 5.71 µM | 1.71 | 3.27 µM | 1.71 µM | 3.55 | 2.07 µM | 4.54 µM | 0.915 µM | 3.48 µM | 2.07 | 3.77 µM | 1.61 µM | 3.12 µM | 1.79 µM | 3.51 µM | 1.72 µM | 3.19 µM |
| O=S1(=O)N(Cc2ccccc2)[C@@H](Cc2ccccc2)[C@H](O)[C@H](O)[C@H](Cc2ccccc2)N1Cc1ccccc1 | 3.26 µM | 7.68 µM | 2.89 | 5.93 µM | 2.62 | 5.68 µM | 2.82 µM | 6.39 | 3.35 µM | 6.9 µM | 3.05 µM | 9.38 µM | 3.77 | 8.38 µM | 3.65 µM | 7.33 µM | 2.43 µM | 5.05 µM | 3.41 µM | 7.91 µM |
| Cc1cc(Nc2nc(C(=O)Nc3ccccc3)nc3ccccc23)n[nH]1 | 10.3 µM | > 25 µM | > 25 | > 25 µM | 7.82 | > 25 µM | 13.6 µM | > 25 | > 25 µM | > 25 µM | 7.94 µM | > 25 µM | 2.52 | > 25 µM | 1.87 µM | > 25 µM | 4.7 µM | > 25 µM | 2.29 µM | > 25 µM |
| c1cc(-c2nnc(SSc3ncnc4nc[nH]c34)o2)ccn1 | 6.6 µM | > 100 µM | 9.34 | > 100 µM | 0.51 | 12.8 µM | 4.45 µM | > 100 | 43.7 µM | > 100 µM | 0.351 µM | > 100 µM | 0.487 | > 100 µM | 0.472 µM | 5.17 µM | 2 µM | > 100 µM | 5.15 µM | > 100 µM |
| Cc1cc(C)c2c(n1)sc1c(N)ncnc12 | > 22.3 µM | > 25 µM | > 25 | > 25 µM | > 25 | > 25 µM | > 24 µM | > 25 | > 25 µM | > 25 µM | > 25 µM | > 25 µM | 10.1 | > 25 µM | 15.8 µM | > 25 µM | 24.4 µM | > 25 µM | > 25 µM | > 25 µM |
| CCCCCCCCOC(=O)c1c(C)[nH]c(/C=C2\N=C(c3ccc[nH]3)C=C2OC)c1C | 0.0601 µM | 3.55 µM | 0.188 | 7.45 µM | 0.0779 | 0.639 µM | < 0.0182 µM | 0.517 | 0.25 µM | 6.14 µM | 0.0212 µM | 14.2 µM | 0.0484 | 7.29 µM | < 0.0214 µM | 4.83 µM | < 0.0177 µM | 1.25 µM | 0.0765 µM | 11 µM |
| CCOc1ccc(/C(C=O)=C(\Cl)c2ccc(OC)cc2)cc1 |  | > 100 µM |  | > 100 µM |  | > 100 µM |  | > 100 |  | > 100 µM |  | > 100 µM |  | > 100 µM |  | > 100 µM |  | > 100 µM |  | > 100 µM |
| CCN1CCN(Cc2ccc(NC(=O)Nc3nc4ccc(Oc5ccnc(C(=O)NC)c5)cc4s3)cc2C(F)(F)F)CC1 | 1.8 µM | 3.66 µM | 1.86 | 3.51 µM | 1.82 | 3.66 µM | 1.74 µM | 3.4 | 1.24 µM | 2.69 µM | 0.0514 µM | 1.27 µM | 2.5 | 4.54 µM | 1.94 µM | 4.15 µM | 1.73 µM | 3.45 µM | 1.91 µM | 3.63 µM |
